Measured values from patent publication US20160067212A1, “USE OF INSULIN SIGNALING ANTAGONISTS, OPTIONALLY IN COMBINATION OF TRANSFECTION OF NON-BETA CELLS, FOR INDUCING INSULIN PRODUCTION” (UNIVERSITE DE GENEVE, priority 2013, published 2016).
“Also recorded” adds a separate entry of the source. Bridges are numbered along the chain shown (N, C = ends). Where no end group is shown, it is not given here.

Experiments:
Pdx1-expressing α-cells = assay: Insulin production in Pdx1-expressing α-cells of adult mice with normal β-cell mass after in vivo inhibition of insulin signaling; details: in vivo administration to mice expressing Pdx1 in α-cells; FIG. 7B
Method: (§1) DT (Sigma) was administrated by intra-peritoneal (i.p.) injections as previously described (Thorel et al., 2010, supra). DOX (1 mg/ml; Sigma) was added to the drinking water. S961 (Novo-Nordisk) (Vikram and Jena, 2010, Biochem Biophys Res Commun. 398(2):260-5) was injected intravenously (i.v.) twice a day at 200-nmol/kg-body weight, for 4 consecutive days. PPP (Santa-Cruz) and Wortmannin (Sigma) were injected i.p. once a day for 5 consecutive days at 10-mg/kg-body weight and 1-mg/kg-body weight, respectively. Mice received subcutaneous insulin pellets (Linbit) one week apart, if glycaemia exceeded 25 mM.
Pancreatic glucagon and insulin dosages (immunoassays), gene expression analyses by real time PCR as well as histological and morphometric analyses were performed as described (Herrera et al, 1991, Development. 113(4):1257-65; Strom et al, 2007, Development. 134(15):2719-25).
Cryostat sections were 10 μm-thick. The antibodies used were: rabbit and guinea pig anti-Pdx1 (kind gift of C. Wright, 1/5000 and 1/750 respectively), guinea pig anti-porcine insulin (DAKO, 1/400), mouse anti-porcine glucagon (1/1000), mouse anti-somatostatin (BCBC Ab1985, 1/200), rabbit anti-GFP (Molecular Probes, 1/400), rabbit anti-Cpeptide1 (BCBC Ab1044, 1/500), rabbit anti-Cpeptide2 (BCBC Ab1042, 1/500). […]

[1] = Peripheral action of S961 administered in vivo (glycemia); design: species or system mice; details: data not shown
Method: as §1
To test whether insulin deprivation in absence of β-cell loss can prime α-cells to insulin production, adult mice in which α-cells express Pdx1 (cPdx1OE) were treated with an insulin receptor antagonist, termed S961 (Novo Nordisk), to blunt insulin signaling in peripheral tissues as well as in pancreatic islets (FIG. 7A).
A 5-day treatment to healthy adult mice having a normal β-cell mass led to insulin production in some 18% of Pdx1-expressing α-cells (FIG. 7B). […] Next, the insulin receptor was conditionally inactivated in adult α-cells to assess whether local inhibition of insulin signaling, exclusively at the level of α-cells, is sufficient to prime those cells to insulin production. […]

insulin receptor = molecular target: T1, insulin receptor (Rattus norvegicus, UniProt P15127); details: Vikram and Jena, 2010; cited from earlier work
T1 construct: host or cells: rats, in vivo (endogenous receptor)
T1 sequence (P15127 27-759 limits assumed): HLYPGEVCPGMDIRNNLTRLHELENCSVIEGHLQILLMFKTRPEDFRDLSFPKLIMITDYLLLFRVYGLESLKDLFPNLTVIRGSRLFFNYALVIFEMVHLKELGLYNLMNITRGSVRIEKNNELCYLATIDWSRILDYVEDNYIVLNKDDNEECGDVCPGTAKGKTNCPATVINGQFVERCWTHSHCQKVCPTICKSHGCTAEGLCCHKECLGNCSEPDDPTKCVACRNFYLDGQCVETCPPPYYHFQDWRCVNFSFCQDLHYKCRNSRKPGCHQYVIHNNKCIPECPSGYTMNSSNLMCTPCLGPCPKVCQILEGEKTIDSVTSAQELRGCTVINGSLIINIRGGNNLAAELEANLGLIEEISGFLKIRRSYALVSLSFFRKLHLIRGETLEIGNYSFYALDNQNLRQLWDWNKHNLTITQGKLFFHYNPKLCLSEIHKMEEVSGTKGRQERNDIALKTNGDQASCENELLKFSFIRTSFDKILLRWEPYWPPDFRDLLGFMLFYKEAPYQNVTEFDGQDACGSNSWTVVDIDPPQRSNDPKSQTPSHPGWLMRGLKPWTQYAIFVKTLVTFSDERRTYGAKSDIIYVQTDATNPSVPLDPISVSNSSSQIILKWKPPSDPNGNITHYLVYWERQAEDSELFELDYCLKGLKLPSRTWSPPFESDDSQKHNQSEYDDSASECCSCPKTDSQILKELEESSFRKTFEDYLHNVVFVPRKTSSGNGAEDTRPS
T1 sequence (P15127 764-1383 partner limits assumed): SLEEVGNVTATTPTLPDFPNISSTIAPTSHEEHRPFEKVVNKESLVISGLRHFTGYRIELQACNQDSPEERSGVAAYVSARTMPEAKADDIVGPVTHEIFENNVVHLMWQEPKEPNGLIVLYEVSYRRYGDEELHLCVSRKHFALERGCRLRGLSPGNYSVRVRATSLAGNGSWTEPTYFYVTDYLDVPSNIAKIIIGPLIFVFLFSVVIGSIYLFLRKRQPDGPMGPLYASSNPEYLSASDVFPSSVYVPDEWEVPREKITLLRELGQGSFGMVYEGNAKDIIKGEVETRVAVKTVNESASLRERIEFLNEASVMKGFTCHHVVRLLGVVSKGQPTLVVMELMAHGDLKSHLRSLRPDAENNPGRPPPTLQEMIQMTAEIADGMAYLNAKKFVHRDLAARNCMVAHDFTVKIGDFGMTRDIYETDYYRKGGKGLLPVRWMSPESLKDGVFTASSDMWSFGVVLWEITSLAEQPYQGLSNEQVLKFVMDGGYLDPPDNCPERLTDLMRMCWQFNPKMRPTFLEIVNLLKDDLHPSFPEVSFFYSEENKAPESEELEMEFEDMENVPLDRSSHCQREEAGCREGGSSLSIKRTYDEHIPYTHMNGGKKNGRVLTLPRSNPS

Compound | insulin production triggered in Pdx1-expressing α-cells (in words) (Pdx1-expressing α-cells) | effect on glycemia when administered in vivo [1] | effects of S961 in rats (insulin receptor)
COC[C@H]1OC(=O)c2coc3c2[C@@]1(C)C1=C(C3=O)[C@@H]2CCC(=O)[C@@]2(C)C[C@H]1OC(C)=O [wortmannin] | triggers insulin production with similar efficiency; also recorded: produce insulin |  | 
GSLDESFYDWFERQLGGGSGGSSLEEEWAQIQCEVWGRGCPSY (disulfide 33-40) [S961] |  | induces hyperglycemia | hyperglycemia, hyperinsulinemia, insulin-resistance and depletion of energy stores
